# Patent US10688082B2, “Aminopyrazine compounds with A2A antagonist properties” (Merck Sharp & Dohme Corp., priority 2015, dated 2020)
# Target: T1, human A2a receptor (Homo sapiens, UniProt P29274)
# T1 construct: purchased Perkin-Elmer RBHA2AM400UA; host or cells: HEK293 cells (membranes)
# Experiment: Competition binding assay using Scintillation Proximity technology (A2a activity)
# Settings: membranes from HEK293 cells expressing the human A2a receptor; 0.5 nM tritiated ligand; Cheng-Prusoff
# Experimental: Binding affinities of compounds of the invention for the human A2a receptor were determined in a competition binding assay using Scintillation Proximity technology. Thus, […] from HEK293 cells expressing the human A2a receptor were incubated with a compound of the invention at concentrations ranging from 3000 nM to 0.15 nM in a reaction mixture containing also 0.5 nM of a tritiated form of 5-amino-7-[2-phenethyl]-2-(furan-2-yl)-7H-pyrazolo[4,3-e][1,2,4]triazolo[1,5-c]pyrimidine (the tritiated compound) and 100 μg of wheat germ agglutin-coated yttrium silicate SPA beads for one hour at room temperature with agitation. The beads were then allowed to settle to the bottom of the wells for 1 hr, after which the membrane-associated radioactivity was determined by scintillation counting in a TopCount microplate reader. Ki values were determined using the Cheng-Prusoff equation.
# HEK293 cells expressing the human, rat, dog or monkey adenosine 2a receptor (Purchased from Perkin-Elmer # RBHA2AM400UA).
# The Tritiated compound was prepared according to published methods.
# Wheat germ agglutinin-coated yttrium silicate SPA beads (GE Healthcare # RPNQ0023). Dilute to 25 mg/ml in assay buffer.
# Assay Buffer was prepared using Dulbecco's calcium and magnesium free phosphate buffered saline+10 mM MgCl2
# Adenosine deaminase from calf intestine, 10 mg/2 ml (Roche #10 102 105 001).
# A2a antagonist standard (9-chloro-1-(2-furanyl)-[1,2,4]triazolo1,5-c]quinazolin-5-amine from Tocris Bioscience)
# Make eight 1:3 serial dilutions in 100% DMSO from a 3 mM compound stock
# Transfer 50 nl of compound into a 384-well OptiPlate (Perkin Elmer).
# Typically, final concentrations of compound used in the assay ranged from 3000 nM to 0.152 nM.
# Dilute a solution of the Tritiated compound to 1.25 nM in assay buffer. This is a 2.5× solution. The final concentration in the assay is 0.5 nM. Calculate the concentration by counting two 5 μl aliquots.
# Use 0.25 ug of membrane/well. Dilute membranes to 9.7 μg/ml in assay buffer. Treat with 20 ug/ml adenosine deaminase (ADA) for 15 minutes at room temperature to degrade endogenous adenosine.
# Use 100 μg/well wheat germ agglutinin-coated yttrium silicate SPA beads.
# Mix ADA-treated membranes and SPA beads together for 30 min prior to assay.
# To the Perkin-Elmer Optiplate-384 containing the compound titration add 20 μl of 2.5× solution of the Tritiated compound and 30 μl of the membrane-bead mixture. Incubate for one hour at room temperature with agitation.
# Include total binding (assay buffer+1% DMSO) and non-specific binding (CGS15943, 1 μM) wells.
# Allow the beads to settle for one hour.
# A curve fitting program (i.e., Prism, Activity Base, Chemcart) is used to determine the EC50. The Ki value is calculated using the Cheng-Prusoff equation. K i=EC50/(1+(radioligand concentration/Kd))
# T1 sequence (P29274 whole entry): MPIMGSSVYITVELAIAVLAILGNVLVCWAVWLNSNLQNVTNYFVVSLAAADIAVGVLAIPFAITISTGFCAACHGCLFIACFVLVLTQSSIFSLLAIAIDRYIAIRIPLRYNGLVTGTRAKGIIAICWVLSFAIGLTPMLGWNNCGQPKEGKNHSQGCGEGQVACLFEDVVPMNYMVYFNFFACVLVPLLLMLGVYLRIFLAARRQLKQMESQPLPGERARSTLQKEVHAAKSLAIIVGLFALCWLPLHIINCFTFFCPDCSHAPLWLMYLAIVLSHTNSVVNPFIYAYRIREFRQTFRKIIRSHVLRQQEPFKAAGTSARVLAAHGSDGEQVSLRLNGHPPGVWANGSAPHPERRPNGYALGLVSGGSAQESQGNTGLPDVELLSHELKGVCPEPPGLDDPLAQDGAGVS
row,Ki,Compound
1,20 nM,"COc1cccc2c1nc(N)n1nc(-c3cnco3)cc21 [Ex-2, 7-methoxy-2-(oxazol-5-yl)pyrazolo[1,5-c]quinazolin-5-amine]"
2,677 nM,"COCCOc1ccc(N2CCN(CCOc3cccc4c3nc(N)n3nc(-c5ccco5)cc43)CC2)cc1 [Ex-3, 2-(furan-2-yl)-7-(2-(4-(4-(2-methoxyethoxy)phenyl)piperazin-1-yl)ethoxy)pyrazolo[1,5-c]quinazolin-5-amine]"
3,12 nM,"COc1cccc2c1nc(N)n1nc(Cc3ccc(F)cc3)cc21 [Ex-5, 2-(4-fluorobenzyl)-7-methoxypyrazolo[1,5-c]quinazolin-5-amine]"
4,10 nM,"COc1cccc2c1nc(N)n1nc(Cc3ccc(F)cc3F)cc21 [Ex-6, 2-(2,4-difluorobenzyl)-7-methoxypyrazolo[1,5-c]quinazolin-5-amine]"
5,16 nM,"COc1cccc2c1nc(N)n1nc(Cc3cccc4ccccc34)cc21 [Ex-7, 7-methoxy-2-(naphthalen-1-ylmethyl)pyrazolo[1,5-c]quinazolin-5-amine]"
6,136 nM,"COc1cccc2c1nc(N)n1nc(Cc3ccc(N4CCCCC4)cc3)cc21 [Ex-8, 7-methoxy-2-(4-(piperidin-1-yl)benzyl)pyrazolo[1,5-c]quinazolin-5-amine]"
7,3 nM,"COc1cccc2c1nc(N)n1nc(Cc3cccc4cccnc34)cc21 [Ex-9, 7-methoxy-2-(quinolin-8-ylmethyl)pyrazolo[1,5-c]quinazolin-5-amine]"
8,36 nM,"COc1cccc2c1nc(N)n1nc(Cc3cncnc3)cc21 [Ex-10, 7-methoxy-2-(pyrimidin-5-ylmethyl)pyrazolo[1,5-c]quinazolin-5-amine]"
9,61 nM,"COc1cccc2c1nc(N)n1nc(Cc3ccc(N(C)C)cc3)cc21 [Ex-11, 2-(4-(dimethylamino)benzyl)-7-methoxypyrazolo[1,5-c]quinazolin-5-amine]"
10,316 nM,"COc1cccc2c1nc(N)n1nc(Cc3ccc(N4CCN(C)CC4)cc3)cc21 [Ex-12, 7-methoxy-2-(4-(4-methylpiperazin-1-yl)benzyl)pyrazolo[1,5-c]quinazolin-5-amine]"
11,373 nM,"COc1cccc2c1nc(N)n1nc(Cc3csc(N4CCN(C)CC4)n3)cc21 [Ex-13, 7-methoxy-2-((2-(4-methylpiperazin-1-yl)thiazol-4-yl)methyl)pyrazolo[1,5-c]quinazolin-5-amine]"
12,2 nM,"COc1cccc2c1nc(N)n1nc(Cc3ccnc4ccccc34)cc21 [Ex-14, 7-methoxy-2-(quinolin-4-ylmethyl)pyrazolo[1,5-c]quinazolin-5-amine]"
13,85 nM,"COc1cccc2c1nc(N)n1nc(Cc3cccc4ncccc34)cc21 [Ex-15, 7-methoxy-2-(quinolin-5-ylmethyl)pyrazolo[1,5-c]quinazolin-5-amine]"
14,131 nM,"COc1cccc2c1nc(N)n1nc(Cc3ccc4[nH]ncc4c3)cc21 [Ex-16, 2-((1H-indazol-5-yl)methyl)-7-methoxypyrazolo[1,5-c]quinazolin-5-amine]"
15,17 nM,"COc1cccc2c1nc(N)n1nc(Cc3ccccc3C(F)(F)F)cc21 [Ex-17, 7-methoxy-2-(2-(trifluoromethyl)benzyl)pyrazolo[1,5-c]quinazolin-5-amine]"
16,3 nM,"COc1cccc2c1nc(N)n1nc(Cc3ccccc3N3CCOCC3)cc21 [Ex-18, 7-methoxy-2-(2-morpholinobenzyl)pyrazolo[1,5-c]quinazolin-5-amine]"
17,67 nM,"COc1cccc2c1nc(N)n1nc(Cc3ccccc3N3CCNCC3)cc21 [Ex-19, 7-methoxy-2-(2-(piperazin-1-yl)benzyl)pyrazolo[1,5-c]quinazolin-5-amine]"
18,15 nM,"COc1cccc2c1nc(N)n1nc(Cc3cccnc3N3CCOCC3)cc21 [Ex-20, 7-methoxy-2-((2-morpholinopyridin-3-yl)methyl)pyrazolo[1,5-c]quinazolin-5-amine]"
19,51 nM,"COc1cccc2c1nc(N)n1nc(Cc3ccccc3CN3CCOCC3)cc21 [Ex-21, 7-methoxy-2-(2-(morpholinomethyl)benzyl)pyrazolo[1,5-c]quinazolin-5-amine]"

row,Ki,Compound
1,128 nM,"COc1cccc2c1nc(N)n1nc(Cc3ccc(N4CCOCC4)cc3)cc21 [Ex-22, 7-methoxy-2-(4-morpholinobenzyl)pyrazolo[1,5-c]quinazolin-5-amine]"
2,26 nM,"COc1cccc2c1nc(N)n1nc(Cc3cccc(N4CCOCC4)c3)cc21 [Ex-23, 7-methoxy-2-(3-morpholinobenzyl)pyrazolo[1,5-c]quinazolin-5-amine]"
3,224 nM,"COc1cccc2c1nc(N)n1nc(Cc3ccc(N4CCN(C(=O)OC(C)(C)C)CC4)cc3)cc21 [Ex-24, tert-butyl 4-(4-((5-amino-7-methoxypyrazolo[1,5-c]quinazolin-2-yl)methyl)phenyl)piperazine-1-carboxylate]"
4,333 nM,"COc1cccc2c1nc(N)n1nc(Cc3ccc(N4CCNCC4)cc3)cc21 [Ex-25, 7-methoxy-2-(4-(piperazin-1-yl)benzyl)pyrazolo[1,5-c]quinazolin-5-amine]"
5,120 nM,"CCN1CCN(c2ccccc2Cc2cc3c4cccc(OC)c4nc(N)n3n2)CC1 [Ex-26, 2-(2-(4-ethylpiperazin-1-yl)benzyl)-7-methoxypyrazolo[1,5-c]quinazolin-5-amine]"
6,18 nM,"COc1cccc2c1nc(N)n1nc(Cc3ccccc3CN3CCC(C)(O)CC3)cc21 [Ex-27, 1-(2-((5-amino-7-methoxypyrazolo[1,5-c]quinazolin-2-yl)methyl)benzyl)-4-methylpiperidin-4-ol]"
7,9 nM,"COc1cccc2c1nc(N)n1nc(Cc3ccccc3CN3CC(O)C3)cc21 [Ex-28, 1-(2-((5-amino-7-methoxypyrazolo[1,5-c]quinazolin-2-yl)methyl)benzyl)azetidin-3-ol]"
8,17 nM,"COc1cccc2c1nc(N)n1nc(Cc3ccccc3CN3CCCC3)cc21 [Ex-29, 7-methoxy-2-(2-(pyrrolidin-1-ylmethyl)benzyl)pyrazolo[1,5-c]quinazolin-5-amine]"
9,1 nM,"COc1cccc2c1nc(N)n1nc(Cc3ccccc3F)cc21 [Ex-30, 2-(2-fluorobenzyl)-7-methoxypyrazolo[1,5-c]quinazolin-5-amine]"
10,2 nM,"COc1cccc2c1nc(N)n1nc(Cc3cccc(F)c3)cc21 [Ex-31, 2-(3-fluorobenzyl)-7-methoxypyrazolo[1,5-c]quinazolin-5-amine]"
11,1 nM,"COc1ccccc1Cc1cc2c3cccc(OC)c3nc(N)n2n1 [Ex-32, 7-methoxy-2-(2-methoxybenzyl)pyrazolo[1,5-c]quinazolin-5-amine]"
12,32 nM,"COc1ccc(Cc2cc3c4cccc(OC)c4nc(N)n3n2)cc1 [Ex-33, 7-methoxy-2-(4-methoxybenzyl)pyrazolo[1,5-c]quinazolin-5-amine]"
13,7 nM,"COc1cccc(Cc2cc3c4cccc(OC)c4nc(N)n3n2)c1 [Ex-34, 7-methoxy-2-(3-methoxybenzyl)pyrazolo[1,5-c]quinazolin-5-amine]"
14,130 nM,"COc1cccc2c1nc(N)n1nc(Cc3ccc(C(F)(F)F)cc3)cc21 [Ex-35, 7-methoxy-2-(4-(trifluoromethyl)benzyl)pyrazolo[1,5-c]quinazolin-5-amine]"
15,12 nM,"COc1cccc2c1nc(N)n1nc(Cc3cccc(C(F)(F)F)c3)cc21 [Ex-36, 7-methoxy-2-(3-(trifluoromethyl)benzyl)pyrazolo[1,5-c]quinazolin-5-amine]"
16,15 nM,"COc1cccc2c1nc(N)n1nc(Cc3cnn(C)c3)cc21 [Ex-37, 7-methoxy-2-((1-methyl-1H-pyrazol-4-yl)methyl)pyrazolo[1,5-c]quinazolin-5-amine]"
17,25 nM,"COc1cccc2c1nc(N)n1nc(Cc3c(F)cccc3Cl)cc21 [Ex-38, 2-(2-chloro-6-fluorobenzyl)-7-methoxypyrazolo[1,5-c]quinazolin-5-amine]"
18,27 nM,"COc1cccc2c1nc(N)n1nc(Cc3ccc(F)c(F)c3F)cc21 [Ex-39, 7-methoxy-2-(2,3,4-trifluorobenzyl)pyrazolo[1,5-c]quinazolin-5-amine]"
19,6 nM,"COc1cccc2c1nc(N)n1nc(Cc3cccc(F)c3F)cc21 [Ex-40, 2-(2,3-difluorobenzyl)-7-methoxypyrazolo[1,5-c]quinazolin-5-amine]"

# Same assay, conditions: same protocol
row,Ki,Compound
1,9 nM,"COc1cccc2c1nc(N)n1nc(Cc3ccccc3)cc21 [Ex-4, 2-benzyl-7-methoxypyrazolo[1,5-c]quinazolin-5-amine]"
